From patent publication US12594421B2, “Compositions and methods for increasing cancer cell sensitivity to alternating electric fields” (NOVOCURE GMBH, priority 2020, dated 2026)

Key:
H1299 cells = assay: Cytotoxicity by cell count, TTFields plus Dasatinib; assay type: cell-based, human; conditions: H1299, TTFields 150 kHz, Dasatinib 0.03 μM (IC25) 72 h, then TTFields alone 96 h
Experimental: (§1) All cell lines were obtained from ATCC: U-87 (human glioma cell lines) and H1299 (human metastatic lung carcinoma), A2780 (ovarian cell line). Cells were cultured in Dulbecco's modified Eagle's medium (Biological Industries) or RPMI (GIBCO) medium supplemented with 5-10% fetal bovine serum and antibiotics.
For induction of 24 hours or longer TTFields application the cover slips were placed in a ceramic dish of Inovitro™ system and allowed to incubate in a conventional tissue culture incubator (37° C., 95% air, 5% CO2) overnight. Once cells adhered to the cover slip, an additional 1.5 mL of media were added to each well and covered in Parafilm (P7793, Sigma Aldrich) to avoid evaporation of media. After an overnight incubation dishes were mounted onto Inovitro™ base plates (Novocure Inc., Haifa, Israel). Tumor Treating electric fields set anywhere from 1-6 V/cm were applied through an Inovitro™ power generator while frequencies ranged from 50-500 kHz. Incubation temperature was 18° C. with a target temperature of 37° C. for the ceramic dishes upon application of the TTFields. […]
Cells were detached from Inovitro™ dishes with 0.5 ml Trypsin A for approximately 5 minutes and then supplemented with 0.5 ml culture media. 200 μl of cells were taken to 96 well U-shaped plate to be counted in MACSQuant 10 flow cytometer. […]

A2780 cells [1] = assay type: cell-based; conditions: for inhibition concentration 25 (IC25): concentration added for 72 h, cell line not stated in b192 (8 nM is the A2780 concentration of b155)
Experimental: as §1
5,000-50,000 single cells were suspended in 500 μL of media and seeded in the middle of a 22 mm diameter cover slip.
For induction of 24 hours or longer TTFields application the cover slips were placed in a ceramic dish of Inovitro™ system and allowed to incubate in a conventional tissue culture incubator (37° C., 95% air, 5% CO2) overnight. Once cells adhered to the cover slip, an additional 1.5 mL of media were added to each well and covered in Parafilm (P7793, Sigma Aldrich) to avoid evaporation of media. After an overnight incubation dishes were mounted onto Inovitro™ base plates (Novocure Inc., Haifa, Israel). Tumor Treating electric fields set anywhere from 1-6 V/cm were applied through an Inovitro™ power generator while frequencies ranged from 50-500 kHz. Incubation temperature was 18° C. with a target temperature of 37° C. for the ceramic dishes upon application of the TTFields. Corresponding control experiments were done by placing equivalent cover slips within ceramic dishes into a conventional tissue culture incubator (37° C., 5% CO2) and cells grown in parallel with the TTField-exposed coverslips.
(§2) BGT226, Alpalisib, Pictilisib, BKM120 and Dasatinib were added was added to cells 12-24 hours after seeding for inhibitor mono-treatment and combination treatment to a final concentration of 8 nM, 1 nm, 1 nm, 500 nm and 75 nm respectively in A2780 cells. Control and TTFields samples received same volume of DMSO. Following 72 hours of treatment media was replaced for media with no inhibitor and cells were grown for additional 96 hours. At 168 hours (7 days) cytotoxic assay was performed by GentelMACS cell count, Apoptosis assay and cells were seeded for colony assay (as specified in cell count and Quantification of cell death).
(§3) Cells were detached from Inovitro™ dishes with 0.5 ml Trypsin A for approximately 5 minutes and then supplemented with 0.5 ml culture media. 200 μl of cells were taken to 96 well U-shaped plate to be counted in MACSQuant 10 flow cytometer. Analysis was performed with FlowJo_V10 software and statistics was done by GraphPad Prism 8 software.

A2780 cells [2] = assay: Colony assay (clonogenicity), TTFields plus inhibitor; assay type: cell-based, human; conditions: FIG. 18; BGT226 8 nM 72 h, then TTFields alone 96 h
Experimental: as §2
Colony assay: following cell count 300 cells of each treatment were seeded in duplicates in 6 well dishes with 2 ml media. Once colonies were visible they were washed with PBS. Cells were fixed in −20° C. methanol and stained with 0.5% Crystal violet. Colonies were imaged in camera and counted using Image J (FIJI).

A2780 cells [3] = assay: Apoptosis assay (annexin V / 7-AAD), TTFields plus inhibitor; assay type: cell-based, human; conditions: FIG. 6E
Experimental: as §2
(§4) Cell death was assessed by double staining of cells with FITC-conjugated annexin V (MEBCYTO© 4700 Apoptosis Kit; MBL©) and 7-Aminoactinomycin D (7-AAD; BioLegend©) as per manufacturer's instructions.

[4] = test system: Akt phosphorylation in Ser473; assay: Western blot of Akt phosphorylation (pAkt Ser473) after TTFields with BGT226; assay type: cell-based, human
Experimental: Following TTFields application cells were transferred to cold PBS plates for wash.
RIPA lysis buffer (R0278, Sigma-Aldrich), supplemented with a cocktail of protease (Complete Mini, Roche), and phosphatase inhibitors (Halt #78420, Thermo Scientific) was added to plates and cells were scraped with approximately 100 μl supplemented RIPA buffer for 8 Inovitro™ dishes.
Extracts were shaken at 4° C. for a duration of 30 minutes. Samples were centrifuged (20 min, 14,000 rpm, 4° C.). supernatant was transferred and protein concentration was determined by BCA protein assay kit. […]
After electrophoresis, proteins were transferred to 0.2 μm polyvinylidene difluoride membrane (Immuno-Blot PVDF #162-0177, Bio-Rad) and probed with the appropriate primary antibody: GAPDH (SC-32233, Santa Cruz), Vinculin (ab140007, Abcam), Cyclin D1 (2922, Cell Signaling), Rb (9309, Cell Signaling), pRb S807/811 (8516, Cell Signaling), pAkt 5473, (4051, Cell signaling), Akt (2920, Cell signaling)), FAK (3283S, Cell signaling), Phospho-FAK (Tyr397) (3283S, Cell signaling, Src (2109S, cell signaling) and Phospho-Src (Tyr416) (2101S, Cell signaling). followed by horseradish peroxidase-conjugated secondary antibody (goat anti rabbit 7074, Cell Signaling and goat anti mouse 7076, Cell Signaling) and a chemiluminescent substrate (WBLUF0100, Signa-Aldrich). Quantification of bands was done by Image J software. […]

cancer cells [5] = assay: Cell cytotoxicity, TTFields plus GSK3β inhibitor 9-ING-41 (FIG. 19); assay type: cell-based; conditions: cell line and concentration not stated
Experimental: as §3

cancer cells [6] = assay: Apoptosis, TTFields plus GSK3β inhibitor 9-ING-41 (FIG. 19); assay type: cell-based; conditions: cell line and concentration not stated
Experimental: as §4

Cc1nc(Nc2ncc(C(=O)Nc3c(C)cccc3Cl)s2)cc(N2CCN(CCO)CC2)n1 [Dasatinib]
treatment efficacy of TTFields plus Dasatinib, cytotoxic effect (H1299 cells): increased treatment efficacy relative to TTFields or inhibitor alone in all combination groups
treatment efficacy of TTFields plus Dasatinib, cytotoxic effect (A2780 cells [1]; A2780, TTFields 200 kHz, Dasatinib 0.075 μM (IC25) 72 h, then TTFields alone 96 h): increased treatment efficacy relative to TTFields or inhibitor alone in all combination groups

CC(=O)O[C@H]1C(=O)[C@@]2(C)[C@H]([C@H](OC(=O)c3ccccc3)[C@]3(O)C[C@H](OC(=O)[C@H](O)[C@@H](NC(=O)c4ccccc4)c4ccccc4)C(C)=C1C3(C)C)[C@]1(OC(C)=O)CO[C@@H]1C[C@@H]2O [Paclitaxel]
cytotoxicity of combination with TTFields (A2780 cells [1]; FIG. 18, Paclitaxel 2 nM 72 h, then TTFields alone 96 h): effective to a lesser extent than that of BGT226
inhibition concentration 25 (IC25) (A2780 cells [1]; FIG. 18): 2 nM

COc1ccc(-c2ccc3ncc4c(c3c2)n(-c2ccc(N3CCNCC3)c(C(F)(F)F)c2)c(=O)n4C)cn1 [BGT226]
cell resistance caused by pro-survival signaling by TTFields (A2780 cells [1]; FIG. 6A-6E, cell line not stated): inhibited by BGT226
cell survival, combination of TTFields with BGT226 (A2780 cells [1]; FIG. 6C, cell line not stated): synergistic effect in cell survival
efficacy of combination with TTFields, BGT226 compared with Paclitaxel (A2780 cells [1]; FIG. 18, BGT226 8 nM or Paclitaxel 2 nM 72 h, then TTFields alone 96 h): more effective than Paclitaxel and TTFields
inhibition concentration 25 (IC25) (A2780 cells [1]; FIG. 18): 8 nM
clonogenicity, combination therapy with TTFields (A2780 cells [2]): dramatic effect in combination therapy with BGT226 compared to Paclitaxel
live cells (AnnexinV-/7AAD-), inhibitor alone compared to combined treatment (A2780 cells [3]): more live cells
apoptotic assay, combined treatment of TTFields and inhibitor (A2780 cells [3]; cell line not stated): induce apoptosis in reminder of cells
phosphorylation of Akt in Ser473 following combined treatment of TTFields and BGT226 ([4]; A2780 cells, BGT226 5 nM for 72 h, then media without inhibitor 96 h, lysate at 168 hours): decrease in phosphorylation of Akt in Ser473
increase in Akt phosphorylation following TTFields ([4]; Western blot, FIG. 5A-5B): inhibited by BGT226

Cn1cc(C2=C(c3coc4ccc(F)cc34)C(=O)NC2=O)c2cc3c(cc21)OCO3 [9-ING-41]
efficacy of TTFields treatment in cell cytotoxicity, combination therapy (cancer cells [5]): did not increase efficacy of TTFields treatment
efficacy of TTFields treatment in apoptosis, combination therapy (cancer cells [6]): did not increase efficacy of TTFields treatment
